In patent US20100037353A1, “METHOD FOR IMPROVING ACTIVITY OF REACTIVE OXYGEN SPECIES SCAVENGING ENZYMES” (B Food Science Co., Ltd., priority 2007, published 2010):

Assays:
SOD [1] = assay: SOD activity of rat liver extract (SOD Assay Kit-WST); assay type: in vivo, SD rat; conditions: liver extract of rats fed thirty days with sugar alcohol 0-10% in feed (Example 2)
Excerpt: RNA was extracted from a root of the Arabidopsis thaliana grown by a culture medium which contains a MS culture medium composition having sucrose at a concentration of 2% and a series of test substances at a final concentration of 0-2% each. This extracted specimen was supplied to the DNA microarray. In addition, RNA was extracted from the hepatocytes of SD rat grown with feed which contains a control feed having cornstarch as the main ingredient and a sugar alcohol as a series of test substances at a final concentration of 0-10%. This extracted specimen was supplied to the DNA microarray in the same way as described above. The protein of the ROS-scavenging enzyme in the model organism cells was separated and purified using AKT Aexplorer (FPLC). SOD activity measurements were carried out according to a standard protocol using SOD Assay Kit-WST. The livers of the rats fed in Example 2 each was crushed and then extracted with normal saline solution, and then freeze-dried. SOD activity was determined according to the same way as described in Example 3. […] In particular, the SOD activity of the erythritol-added group increased by 2 times.

[2] = test system: Cu/Zn-type SODs and SOD Cu Chaperone genes; assay: Transcriptomics with Arabidopsis thaliana DNA chip on root total RNA; assay type: in vivo; conditions: root of Arabidopsis thaliana grown on 2% sugar-containing MS medium with sugar alcohol at final concentration 0-2%
Excerpt: (§1) The DNA microarray is a partial sequence of DNA arranged and fixed in a high-density manner on a slide glass which is divided into from several tens of thousands to hundreds of thousands. By using this, an expressed gene can be detected. Arabidopsis thaliana and a rat were used as model organisms. These organisms each was cultivated or bred with an arbitrary test substance and then an mRNA extracted from the cells of the cultivated or bred organism was hybridized with a target which is changed into cDNA with a reverse transcriptase. By carrying out this procedure, gene information expressed in the model organism was detected comprehensively, this procedure is so-called a transcriptomics. Furthermore, separation and purification of the protein of the ROS-scavenging enzyme in the model organisms' cells and determination of the enzyme activity were carried out, whereby the results obtained from the transcriptomics were directly verified. RNA was extracted from a root of the Arabidopsis thaliana grown by a culture medium which contains a MS culture medium composition having sucrose at a concentration of 2% and a series of test substances at a final concentration of 0-2% each. This extracted specimen was supplied to the DNA microarray. In addition, RNA was extracted from the hepatocytes of SD rat grown with feed which contains a control feed having cornstarch as the main ingredient and a sugar alcohol as a series of test substances at a final concentration of 0-10%. This extracted specimen was supplied to the DNA microarray in the same way as described above. The protein of the ROS-scavenging enzyme in the model organism cells was separated and purified using AKT Aexplorer (FPLC). SOD activity measurements were carried out according to a standard protocol using SOD Assay Kit-WST. Total RNA was extracted from the root of Arabidopsis thaliana grown by a culture medium containing a 2% sugar-containing MS culture medium composition and a series of sugar alcohols at a final concentration of 0-2% each. Transcriptomics was conducted using a Arabidopsis thaliana DNA chip (the number of loading genes: 30,480 genes, the number of probe/gene: 6, probe length: 60mer) of GeneFrontier Corporation.

[3] = test system: Cu/Zn-type SODs and SOD Cu Chaperone genes; assay: Transcriptomics with rat DNA chip on hepatocyte total RNA of fed rats; assay type: in vivo; conditions: hepatocytes of SD rats fed thirty days with feed containing sugar alcohol at final concentration 0-10%
Excerpt: as §1, with “Kit-WST. Rats were fed for thirty days with a control diet containing 552.5 parts by weight of cornstarch, 250 parts by weight of casein, 35 parts by weight of mineral, 10 parts by weight of vitamin mixture, 2.5 parts by weight of choline bitartrate, 50 parts by weight of corn oil and 100 parts by weight of powdered cellulose, or feedstuffs containing the same composition as described in the control diet except that a portion of the powdered cellulose was replaced with the series of sugar alcohols so that the feedstuffs contain sugar alcohols at the final concentration of 0-10% each. The livers were taken out of the killed SD system rats and the total” for “Kit-WST. Total”, “the hepatocytes,” for “the root of Arabidopsis thaliana grown by a culture medium containing a 2% sugar-containing MS culture medium composition”, “and transcriptomics” for “and a series of sugar alcohols at a final concentration of 0-2% each. Transcriptomics”, “a rat” for “a Arabidopsis thaliana”, “genes: 21,205,” for “genes: 30,480 genes,”, “of probes per gene: 9,” for “of probe/gene: 6,”

SOD [4] = assay: SOD activity of Arabidopsis thaliana root extract (SOD Assay Kit-WST); assay type: in vivo; conditions: root extract of Arabidopsis thaliana grown with sugar alcohol 0-2% (Example 1)
Excerpt: RNA was extracted from a root of the Arabidopsis thaliana grown by a culture medium which contains a MS culture medium composition having sucrose at a concentration of 2% and a series of test substances at a final concentration of 0-2% each. This extracted specimen was supplied to the DNA microarray. In addition, RNA was extracted from the hepatocytes of SD rat grown with feed which contains a control feed having cornstarch as the main ingredient and a sugar alcohol as a series of test substances at a final concentration of 0-10%. This extracted specimen was supplied to the DNA microarray in the same way as described above. The protein of the ROS-scavenging enzyme in the model organism cells was separated and purified using AKT Aexplorer (FPLC). SOD activity measurements were carried out according to a standard protocol using SOD Assay Kit-WST. The roots of the Arabidopsis thaliana grown in Example 1 were crushed and water-extracted and then freeze-dried. Then each of the dried extract was dissolved in the buffer solution of 0.1M calcium phosphate to obtain a specimen. The SOD activity was determined according to a standard protocol using SOD Assay Kit-WST (Dojin Kagaku Kenkyu-Sho). […] In particular, the SOD activity of the erythritol-added group increased by 2-5 times.

## OC[C@@H](O)[C@@H](O)CO [erythritol]
SOD [1]
  SOD activity compared to the control group: promotion of the SOD activity was seen
  increase of SOD activity compared to the control group: 2 times
[2]
  expression of Cu/Zn-type SODs and SOD Cu Chaperone genes: up-regulated
[3]
  expression of Cu/Zn-type SODs and SOD Cu Chaperone genes: up-regulated
SOD [4]
  SOD activity compared to the control group: promotion of the SOD activity was seen
  increase of SOD activity compared to the control group: 2-5 times

## OC[C@@H](O)[C@@H](O)[C@H](O)[C@H](O)CO [mannitol]
SOD [1]
  SOD activity compared to the control group: promotion of the SOD activity was seen
[2]
  expression of Cu/Zn-type SODs and SOD Cu Chaperone genes: up-regulated
[3]
  expression of Cu/Zn-type SODs and SOD Cu Chaperone genes: up-regulated
SOD [4]
  SOD activity compared to the control group: promotion of the SOD activity was seen

## OC[C@@H](O)[C@@H](O)[C@H](O)[C@@H](O)CO [sorbitol]
SOD [1]
  SOD activity compared to the control group: promotion of the SOD activity was seen
[2]
  expression of Cu/Zn-type SODs and SOD Cu Chaperone genes: up-regulated
[3]
  expression of Cu/Zn-type SODs and SOD Cu Chaperone genes: up-regulated
SOD [4]
  SOD activity compared to the control group: promotion of the SOD activity was seen

## OC[C@@H](O)[C@H](O)[C@@H](O)CO [xylitol]
SOD [1]
  SOD activity compared to the control group: promotion of the SOD activity was seen
[2]
  expression of Cu/Zn-type SODs and SOD Cu Chaperone genes: up-regulated
[3]
  expression of Cu/Zn-type SODs and SOD Cu Chaperone genes: up-regulated
SOD [4]
  SOD activity compared to the control group: promotion of the SOD activity was seen
